Test results taken from the OligoGym collection.
Oligonucleotides are written 5' to 3', each unit as a sugar letter and its base; * is a phosphorothioate linkage, no mark a phosphodiester; rarer units and linkages stand in square brackets, end groups in braces. Plain capitals give the bases only. d = 2'-deoxy (DNA); r = 2'-OH (RNA)

Biological target: P2rx2 (rat)
Assay: reporter assay of Huesken 2005
Conditions: siRNA
Note: test concentration or dose not given here.

Substance	normalised inhibition (eCFP-eYFP dual reporter)
sense rArArArGrUrCrArArGrGrGrGrArUrCrArCrCrAdTdT / antisense rUrGrGrUrGrArUrCrCrCrCrUrUrGrArCrUrUrUdGdG	66.2%
sense rArArArUrUrUrCrArCrCrArUrCrCrUrCrArUrCdTdT / antisense rGrArUrGrArGrGrArUrGrGrUrGrArArArUrUrUdGdG	23.6%
sense rArArCrArArGrCrUrCrUrArCrArGrCrCrArUrAdTdT / antisense rUrArUrGrGrCrUrGrUrArGrArGrCrUrUrGrUrUdTdT	76.6%
sense rArArCrUrGrUrGrArCrCrUrGrGrArCrUrUrGrUdTdT / antisense rArCrArArGrUrCrCrArGrGrUrCrArCrArGrUrUdCdC	38.6%
sense rArArGrCrCrUrArUrGrGrGrArUrUrCrGrArArUdTdT / antisense rArUrUrCrGrArArUrCrCrCrArUrArGrGrCrUrUdTdG	76%
sense rArCrArArGrArUrArArArCrGrGrCrArCrUrArCdTdT / antisense rGrUrArGrUrGrCrCrGrUrUrUrArUrCrUrUrGrUdAdA	50.6%
sense rArCrArGrCrUrCrUrArCrCrUrGrCrCrArUrUrCdTdT / antisense rGrArArUrGrGrCrArGrGrUrArGrArGrCrUrGrUdGdA	42.3%
sense rArCrCrArGrGrArCrArGrCrGrArGrArCrCrGrGdTdT / antisense rCrCrGrGrUrCrUrCrGrCrUrGrUrCrCrUrGrGrUdAdG	49.5%
sense rArCrGrUrCrUrUrCrArUrCrGrUrGrCrArGrArAdTdT / antisense rUrUrCrUrGrCrArCrGrArUrGrArArGrArCrGrUdAdC	85.2%
sense rArCrUrArCrCrArCrCrArCrUrCrGrArArCrUrCdTdT / antisense rGrArGrUrUrCrGrArGrUrGrGrUrGrGrUrArGrUdGdC	43.6%
sense rArCrUrCrCrCrArGrGrArUrCrArGrCrCrArCrCdTdT / antisense rGrGrUrGrGrCrUrGrArUrCrCrUrGrGrGrArGrUdAdG	44.7%
sense rArCrUrUrCrUrGrArCrArArCrCrArUrUrUrUrCdTdT / antisense rGrArArArArUrGrGrUrUrGrUrCrArGrArArGrUdTdC	33.5%
sense rArGrCrArUrArUrGrGrGrArCrArArArGrArCrCdTdT / antisense rGrGrUrCrUrUrUrGrUrCrCrCrArUrArUrGrCrUdGdG	53.1%
sense rArGrGrArUrCrGrArGrGrUrUrArCrCrCrCrUrUdTdT / antisense rArArGrGrGrGrUrArArCrCrUrCrGrArUrCrCrUdGdG	76.8%
sense rArGrGrCrUrGrGrGrUrUrUrCrArUrUrGrUrUrGdTdT / antisense rCrArArCrArArUrGrArArArCrCrCrArGrCrCrUdGdA	64.9%
sense rArGrGrGrCrArCrUrGrUrGrUrArCrCrCrUrArUdTdT / antisense rArUrArGrGrGrUrArCrArCrArGrUrGrCrCrCrUdGdT	55%
sense rArGrUrCrArCrUrArCrUrCrCrCrArGrGrArUrCdTdT / antisense rGrArUrCrCrUrGrGrGrArGrUrArGrUrGrArCrUdAdG	64.6%
sense rArGrUrCrArUrCrArUrCrArArCrUrGrGrArArCdTdT / antisense rGrUrUrCrCrArGrUrUrGrArUrGrArUrGrArCrUdCdC	33.7%
sense rCrArArGrGrCrArArUrGrGrGrArUrUrCrGrCrAdTdT / antisense rUrGrCrGrArArUrCrCrCrArUrUrGrCrCrUrUrGdCdA	64.4%
sense rCrArCrCrArCrUrCrGrArArCrUrCrUrCrArUrCdTdT / antisense rGrArUrGrArGrArGrUrUrCrGrArGrUrGrGrUrGdGdT	64.7%
sense rCrArCrUrArCrUrCrCrCrArGrGrArUrCrArGrCdTdT / antisense rGrCrUrGrArUrCrCrUrGrGrGrArGrUrArGrUrGdAdC	46.4%
sense rCrArGrCrArUrArUrGrGrGrArCrArArArGrArCdTdT / antisense rGrUrCrUrUrUrGrUrCrCrCrArUrArUrGrCrUrGdGdC	51.7%
sense rCrArGrUrGrUrArGrUrCrArGrCrArUrCrArUrCdTdT / antisense rGrArUrGrArUrGrCrUrGrArCrUrArCrArCrUrGdCdC	78.4%
sense rCrArUrCrArUrCrArCrCrArArArGrUrCrArArGdTdT / antisense rCrUrUrGrArCrUrUrUrGrGrUrGrArUrGrArUrGdGdA	71.5%
sense rCrArUrCrUrCrUrGrCrUrCrUrGrArCrUrGrArGdTdT / antisense rCrUrCrArGrUrCrArGrArGrCrArGrArGrArUrGdGdA	42.7%
sense rCrArUrUrGrUrUrGrArGrArArGrGrCrArGrGrAdTdT / antisense rUrCrCrUrGrCrCrUrUrCrUrCrArArCrArArUrGdAdA	61.4%
sense rCrCrArArGrArCrCrUrGrCrGrArGrGrUrGrUrCdTdT / antisense rGrArCrArCrCrUrCrGrCrArGrGrUrCrUrUrGrGdAdG	68.7%
sense rCrCrGrGrArGrArGrCrUrCrCrArUrCrArUrCrAdTdT / antisense rUrGrArUrGrArUrGrGrArGrCrUrCrUrCrCrGrGdTdC	54.2%

Biological target: UBE2T
Assay: reporter assay of Huesken 2005
Conditions: siRNA

Substance	normalised inhibition (eCFP-eYFP dual reporter)
sense rGrUrGrArCrUrCrCrArGrArGrUrArCrArCrArAdTdT / antisense rUrUrGrUrGrUrArCrUrCrUrGrGrArGrUrCrArCdCdA	108%
sense rGrUrUrArUrCrArUrUrCrCrUrGrArGrArGrGrUdTdT / antisense rArCrCrUrCrUrCrArGrGrArArUrGrArUrArArCdTdT	75.4%
sense rUrArArArGrArCrCrArArArUrGrGrArUrGrArCdTdT / antisense rGrUrCrArUrCrCrArUrUrUrGrGrUrCrUrUrUrAdTdC	63.2%
sense rUrArUrCrArUrCrCrArArArCrArUrUrGrArUrUdTdT / antisense rArArUrCrArArUrGrUrUrUrGrGrArUrGrArUrAdAdA	67.4%
sense rUrArUrUrArGrGrUrGrGrArGrCrCrArArCrArCdTdT / antisense rGrUrGrUrUrGrGrCrUrCrCrArCrCrUrArArUrAdTdT	57.4%
sense rUrCrArArCrArCrArGrArArArArGrGrArArGrGdTdT / antisense rCrCrUrUrCrCrUrUrUrUrCrUrGrUrGrUrUrGrAdGdT	65.5%
sense rUrCrArArCrArUrCrGrCrArArCrUrGrUrGrUrUdTdT / antisense rArArCrArCrArGrUrUrGrCrGrArUrGrUrUrGrAdGdG	103%
sense rUrCrArCrUrCrCrArArUrUrUrArUrCrArUrCrCdTdT / antisense rGrGrArUrGrArUrArArArUrUrGrGrArGrUrGrAdGdA	56.8%
sense rUrCrCrGrArUrUrUrCrUrCrArCrUrCrCrArArUdTdT / antisense rArUrUrGrGrArGrUrGrArGrArArArUrCrGrGrAdTdC	109%
sense rUrCrUrArCrCrArGrArGrGrCrUrGrGrUrGrArCdTdT / antisense rGrUrCrArCrCrArGrCrCrUrCrUrGrGrUrArGrAdTdT	63.5%
sense rUrCrUrGrCrUrGrGrArArGrGrArUrUrUrGrUrCdTdT / antisense rGrArCrArArArUrCrCrUrUrCrCrArGrCrArGrAdAdT	87.8%
sense rUrCrUrGrGrArUrGrUrUrCrUrCrArArArUrUrGdTdT / antisense rCrArArUrUrUrGrArGrArArCrArUrCrCrArGrAdCdA	80.8%
sense rUrGrArArCrCrUrCrCrUrCrArGrArUrCrCrGrAdTdT / antisense rUrCrGrGrArUrCrUrGrArGrGrArGrGrUrUrCrAdAdA	105%
sense rUrGrArGrArGrGrUrArCrCrCrArUrUrUrGrArAdTdT / antisense rUrUrCrArArArUrGrGrGrUrArCrCrUrCrUrCrAdGdG	87.4%
sense rUrGrArGrGrArArGrArGrArUrGrCrUrUrGrArUdTdT / antisense rArUrCrArArGrCrArUrCrUrCrUrUrCrCrUrCrAdTdC	91.6%
sense rUrGrArUrGrArCrCrCrGrCrUrCrArUrGrGrCrUdTdT / antisense rArGrCrCrArUrGrArGrCrGrGrGrUrCrArUrCrAdGdG	75.6%
sense rUrGrArUrUrCrUrGrCrUrGrGrArArGrGrArUrUdTdT / antisense rArArUrCrCrUrUrCrCrArGrCrArGrArArUrCrAdAdT	95.4%
sense rUrGrGrArUrGrUrUrCrUrCrArArArUrUrGrCrCdTdT / antisense rGrGrCrArArUrUrUrGrArGrArArCrArUrCrCrAdGdA	71.9%
sense rUrGrGrUrGrArCrUrCrCrArGrArGrUrArCrArCdTdT / antisense rGrUrGrUrArCrUrCrUrGrGrArGrUrCrArCrCrAdGdC	80.3%
sense rUrGrUrUrCrUrCrArArArUrUrGrCrCrArCrCrAdTdT / antisense rUrGrGrUrGrGrCrArArUrUrUrGrArGrArArCrAdTdC	53.3%
sense rUrGrUrUrGrGrCrArArGrArUrArArArGrArCrCdTdT / antisense rGrGrUrCrUrUrUrArUrCrUrUrGrCrCrArArCrAdTdG	75.8%
sense rUrUrArArGrCrUrArGrArArGrUrUrArUrCrArUdTdT / antisense rArUrGrArUrArArCrUrUrCrUrArGrCrUrUrArAdAdA	89.9%
sense rUrUrGrArArCrCrUrCrCrUrCrArGrArUrCrCrGdTdT / antisense rCrGrGrArUrCrUrGrArGrGrArGrGrUrUrCrArAdAdT	56.5%
sense rUrUrGrArCrCrUrCrUrArUrUrCrArGrCrUrGrCdTdT / antisense rGrCrArGrCrUrGrArArUrArGrArGrGrUrCrArAdCdA	49.2%
